The source of these data is patent US20060167068A1, “Method of treating self-injurious behavior with glutamate modulating agents” (priority 2005, published 2006).

The nature of this data set: Case reports: glutamate modulating agent added to medication of patients with borderline personality disorder and self-injurious behavior. In kind it is in vivo, human. An excerpt: We describe two patients with borderline personality disorder and prominent cutting behaviors refractory to psychopharmacologic interventions.
Patient 1 was a person with a history of post-traumatic stress disorder and borderline personality disorder. […] They were previously treated with intensive psychotherapy, cognitive behavioral therapy, and pharmacotherapy. Medication management included treatment trials, either alone or in combination, of the following medications: CELEXA (citraloprom HBr), PROZAC (fluoxetine HCl), REMERON (mirtazapine), ZYPREXA (olanzapine), KLONOPIN (clonazepam), LAMICTAL (lamotrigine), RISPERDAL (risperidone), Abilify (aripiprazole), EFFEXOR (venlafaxine HCl), XANAX (alprazolam), WELLBUTRIN (bubroprion HCl), and ATIVAN (lorazepam). Medications provided little relief and their cutting behaviors continued on a daily to weekly basis. Riluzole, a glutamate modulating agent, was added to their medication regimen which consisted of LEXAPRO (escitalopram) 20 mg a day and KLONOPIN 1 mg at bedtime. Riluzole was dosed at 50 mg twice a day. […] This attenuation in their self-injurious behaviors occurred between week 2 and 3 of treatment with riluzole.
Despite the beneficial effects of riluzole with regard to the cutting/self-injurious behaviors (as well as cravings to cut), Patient 1 requested to stop the riluzole secondary to the sedation. Within 1 week of stopping the riluzole, their desire and cravings to cut returned. They were then treated with N-Acetyl Cysteine (NAC), another agent thought to modulate glutamatergic function.
Patient 2 was a person with a long history of borderline personality disorder, major depression, obsessive-compulsive disorder and generalized anxiety disorder. […] These self-injurious behaviors and the cravings to cut worsened under times of stress. They were previously treated with intensive psychotherapy, cognitive behavioral therapy, and pharmacotherapy. Medication management included treatment trials, either alone or in combination, of the following medications: EFFEXOR, ZOLOFT (sertaline HCl), TOPAMAX (topirimate), ATIVAN (lorazepam), trazodone, ABILIFY AND NEURONTIN (gabapentin). Riluzole, a glutamate modulating agent, was added to their medication regimen which consisted of ZOLOFT 200 mg each day, RISPERDAL (risperidone) 2 mg at bedtime, KLONOPIN 1 mg three times per day and PROVIGIL (modafinil) 200 mg a day. Riluzole was dosed at 50 mg twice a day. […] Similar to the first case, the cessation in self-injurious behaviors occurred between week 2 and 3 of treatment with riluzole.

Setting [1] is: Patient 1, riluzole 50 mg twice a day.

For the molecule `CC(=O)N[C@@H](CS)C(=O)O` [NAC, N-Acetyl Cysteine], the “time of treatment until desire to cut remitted” value (Patient 1, NAC after stopping riluzole) is not above 2 weeks. Moreover, where the note is “Patient 1, on NAC”, the “period without any self-injurious behaviors” value is “over three months”. The “self-injurious cravings (self-report)” value (Patient 1, on NAC, desire to cut not completely eradicated as while on riluzole) is “significantly attenuated”.

In the case of `Nc1nc2ccc(OC(F)(F)F)cc2s1` [riluzole, Riluzole], the “time after stopping treatment until desire and cravings to cut returned” value (Patient 1, after stopping riluzole) is on record as not above 1 week. Also, under setting [1], the “adverse effect while on treatment” value is “significant sedation” and the “time on treatment without a single episode or desire to harm themself” value is “approximately eight weeks”. Also, the “cravings to cut / self-injurious behaviors (patient report)” value (Patient 1, riluzole 50 mg twice a day added to LEXAPRO 20 mg a day and KLONOPIN 1 mg at bedtime) is on record as “complete cessation of cravings to cut”. Besides, under “Patient 2, riluzole 50 mg twice a day”, the “period without any self-injurious behaviors” value was “over six months”. The “desire to engage in self-injurious behaviors (patient report)” value (Patient 2, riluzole 50 mg twice a day added to ZOLOFT 200 mg, RISPERDAL 2 mg, KLONOPIN 1 mg three times per day, PROVIGIL 200 mg) was “complete cessation”. Also, the self-injurious behavior entry (both cases (two patients with borderline personality disorder and cutting behaviors refractory to psychopharmacologic interventions), after initiating riluzole) is listed as “significantly decreased”.
